# Data taken from patent US7601746B2 (Shionogi & Co., Ltd., priority 2003, dated 2009).
# Biological target: T1, human TPO receptor (hTPOR) (Homo sapiens, UniProt P40238)
# T1 construct: expressed in transfected cells; host or cells: BaF-B03 (murine IL-3 dependent cell line)
# T1 sequence (P40238 26-635): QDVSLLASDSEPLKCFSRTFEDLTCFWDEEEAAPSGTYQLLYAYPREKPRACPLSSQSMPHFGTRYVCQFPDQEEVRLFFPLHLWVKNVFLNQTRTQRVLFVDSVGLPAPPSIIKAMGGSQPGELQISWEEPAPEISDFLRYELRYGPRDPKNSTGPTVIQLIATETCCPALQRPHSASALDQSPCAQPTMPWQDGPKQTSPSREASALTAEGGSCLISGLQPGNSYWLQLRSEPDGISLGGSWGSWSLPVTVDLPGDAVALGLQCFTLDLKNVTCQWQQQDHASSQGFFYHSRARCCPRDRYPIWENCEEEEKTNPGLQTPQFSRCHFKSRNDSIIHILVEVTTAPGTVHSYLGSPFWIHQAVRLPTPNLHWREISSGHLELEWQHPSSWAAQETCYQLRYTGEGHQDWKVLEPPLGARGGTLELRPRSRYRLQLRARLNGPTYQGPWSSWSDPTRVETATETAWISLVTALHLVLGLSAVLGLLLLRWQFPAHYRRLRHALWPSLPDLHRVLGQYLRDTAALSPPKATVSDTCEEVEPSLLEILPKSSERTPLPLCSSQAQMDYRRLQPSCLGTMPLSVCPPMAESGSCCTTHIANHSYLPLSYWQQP
# Test: Thrombopoietic activity: proliferation of TPO dependent BaF/hTPOR cells (WST-1, absorbance at 450 nm)
# Assay type: cell-based
# Details: 20 h + 4 h WST-1, ED50 = half concentration of the concentration showing the maximum thrombopoietic activity, Table 1
# Outline: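 Proliferation read-out: WST-1 absorbance at 450 nm after 20 h compound exposure plus 4 h reagent, using IL-3-deprived BaF/hTPOR cells (5×10^4 per well) dependent on human TPO receptor signalling. ED50 defined as half the concentration producing maximal activity.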
row,EC50 [nM],SMILES
1,12.8,"C/C(=C\c1c(F)cc(C(=O)Nc2nc3c(s2)COc2c-3cccc2C(C)C)cc1F)C(=O)O [Compound A1309, (E)-3-[2,6-difluoro-4-(6-isopropyl-4H-chromeno[4,3-d]thiazol-2-ylcarbamoyl)phenyl]-2-methylacrylic acid]"
2,0.75,"COC(CCC(C)C)c1cccc(-c2csc(NC(=O)c3cc(Cl)c(C=C(C)C(=O)O)c(Cl)c3)n2)c1F (stereo not drawn) [Compound B60, 3-(2,6-dichloro-4-{4-[2-fluoro-3-(1-methyloxy-4-methylpentyl)phenyl]thiazol-2-ylcarbamoyl}phenyl)-2-methylacrylic acid]"
3,0.73,"CCCCOC(C)c1cccc(-c2csc(NC(=O)c3cc(Cl)c(C=C(C)C(=O)O)c(Cl)c3)n2)c1F (stereo not drawn) [Compound B98, 3-(4-{4-[3-(1-n-butyloxyethyl)-2-fluorophenyl]thiazol-2-ylcarbamoyl)-2,6-dichlorophenyl]-2-methylacrylic acid]"
4,0.73,"CCCCCOC(CC)c1cccc(-c2csc(NC(=O)c3cc(F)c(C=C(C)C(=O)O)c(F)c3)n2)c1F (stereo not drawn) [Compound B19, 3-(2,6-difluoro-4-{4-[2-fluoro-3-(1-n-pentyloxypropyl)phenyl]thiazol-2-ylcarbamoyl}phenyl)-2-methylacrylic acid]"
5,15.6,"CCCCCCOCCc1cccc(-c2csc(NC(=O)c3cc(F)c(/C=C(\C)C(=O)O)c(F)c3)n2)c1OC [Compound B1926, (E)-3-(2,6-difluoro-4-{4-[3-(2-hexyloxyethyl)-2-methyloxyphenyl]thiazol-2-ylcarbamoyl)phenyl)-2-methylacrylic acid]"
6,0.72,"CCCCCCOC(CC)c1cccc(-c2csc(NC(=O)c3cc(Cl)c(C=C(C)C(=O)O)c(Cl)c3)n2)c1F (stereo not drawn) [Compound B83, 3-(2,6-dichloro-4-{4-[2-fluoro-3-(1-n-hexyloxypropyl)phenyl]thiazol-2-ylcarbamoyl}phenyl)-2-methylacrylic acid]"
7,3.2,"CCCCCCCCCC(OC)c1cccc(-c2csc(NC(=O)c3cc(F)c(/C=C(\C)C(=O)O)c(F)c3)n2)c1OC (stereo not drawn) [Compound B354, (E)-3-(2,6-difluoro-4-{4-[2-methyloxy-3-(1-methyloxydecyl)phenyl]thiazol-2-ylcarbamoyl}phenyl)-2-methylacrylic acid]"
8,19.3,"COc1c(CCCOCC2CC2)cccc1-c1csc(NC(=O)c2cc(Cl)c(/C=C(\C)C(=O)O)c(Cl)c2)n1 [Compound B1945, (E)-3-(2,6-dichloro-4-{4-[3-(3-cyclopropylmethyloxypropyl)-2-methyloxyphenyl]thiazol-2-ylcarbamoyl}phenyl)-2-methylacrylic acid]"
9,2.52,COc1c(COCCCC2CCCCC2)cccc1-c1csc(NC(=O)c2cc(F)c(/C=C(\C)C(=O)O)c(F)c2)n1 [Compound B397]
10,18.7,"CCCCCC(OC)c1cccc(-c2csc(NC(=O)c3cc(F)c(/C=C(\C)C(=O)O)c(F)c3)n2)c1OC (stereo not drawn) [Compound B347, (E)-3-(2,6-difluoro-4-{4-[2-methyloxy-3-(1-methyloxyhexyl)phenyl]thiazol-2-ylcarbamoyl}phenyl)-2-methylacrylic acid]"
11,0.88,"CC(=Cc1c(Cl)cc(C(=O)Nc2nc(-c3cccc(CCCOCCC(C)(C)C)c3F)cs2)cc1Cl)C(=O)O [Compound B85, 3-[2,6-dichloro-4-(4-[3-[3-(3,3-dimethylbutyloxy)propyl]-2-fluorophenyl]thiazol-2-ylcarbamoyl)phenyl]-2-methylacrylic acid]"
12,8.25,"CCCCOC(C)c1cccc(-c2csc(NC(=O)c3cc(Cl)c(/C=C(\C)C(=O)O)c(Cl)c3)n2)c1OC (stereo not drawn) [Compound B1122, (E)-3-(4-{4-[3-(1-butyloxyethyl)-2-methyloxyphenyl]thiazol-2-ylcarbamoyl}-2,6-dichlorophenyl)-2-methylacrylic acid]"
13,10.9,"CCCCOCc1cccc(-c2csc(NC(=O)c3cc(Cl)c(/C=C(\C)C(=O)O)c(Cl)c3)n2)c1OC [Compound B1995, (E)-3-{4-[4-(3-butyloxymethyl-2-methyloxyphenyl)thiazol-2-ylcarbamoyl]-2,6-dichlorophenyl}-2-methylacrylic acid]"
14,2.26,"CC(=Cc1c(F)cc(C(=O)Nc2nc3c(s2)CCc2c(CCCOC(C)C)cccc2-3)cc1F)C(=O)O [Compound A7, 3-{2,6-difluoro-4-[4,5-dihydro-6-(3-isopropyloxypropyl)naphtho[1,2-d]thiazol-2-ylcabamoyl]phenyl}-2-methylacrylic acid]"
15,13.2,"CCCCCCCOc1cccc(-c2csc(NC(=O)c3cc(Cl)c(/C=C(\C)C(=O)O)c(Cl)c3)n2)c1OC [Compound B1999, (E)-3-{2,6-dichloro-4-[4-(3-heptyloxy-2-methyloxyphenyl)thiazol-2-ylcarbamoyl]phenyl}-2-methylacrylic acid]"
16,1,"COC(c1cccc(-c2csc(NC(=O)c3cc(F)c(C=C(C)C(=O)O)c(F)c3)n2)c1F)C(C)(C)C (stereo not drawn) [Compound B13, 3-(2,6-difluoro-4-{4-[2-fluoro-3-(1-methyloxy-2,2-dimethylpropyl)phenyl]thiazol-2-ylcarbamoyl}phenyl)-2-methylacrylic acid]"
17,11.7,COc1c(CCOCCC(C)C)cccc1-c1csc(NC(=O)c2cc(Cl)c(/C=C(\C)C(=O)O)c(Cl)c2)n1 [Compound B1955]
18,13.1,"CCCCCCOCc1cccc(-c2csc(NC(=O)c3cc(F)c(/C=C(\C)C(=O)O)c(F)c3)n2)c1OC [Compound B1992, (E)-3-{2,6-difluoro-4-[4-(3-hexyloxymethyl-2-methyloxyphenyl)thiazol-2-ylcarbamoyl]phenyl}-2-methylacrylic acid]"
19,0.62,"CCCCOC(CCCC)c1cccc(-c2csc(NC(=O)c3cc(Cl)c(C=C(C)C(=O)O)c(Cl)c3)n2)c1F (stereo not drawn) [Compound B87, 3-(4-{4-[3-(1-n-butyloxypentyl)-2-fluorophenyl]thiazol-2-ylcarbamoyl}-2,6-dichlorophenyl)-2-methylacrylic acid]"
20,12.8,COc1c(CCOCC2CCCCC2)cccc1-c1csc(NC(=O)c2cc(F)c(/C=C(\C)C(=O)O)c(F)c2)n1 [Compound B1957]
21,10.9,"COC(=Cc1c(F)cc(C(=O)Nc2nc(-c3cccc(COCC(C)(C)C)c3OC)cs2)cc1F)C(=O)O (stereo in doubt) [Compound B2020, (E)-3-(4-{4-[3-(2,2-dimethylpropyloxymethyl)-2-methyloxyphenyl]thiazol-2-ylcarbamoyl}-2,6-difluorophenyl)-2-methyloxyacrylic acid]"
22,0.63,"CCCCCOC(CCC)c1cccc(-c2csc(NC(=O)c3cc(F)c(C=C(C)C(=O)O)c(F)c3)n2)c1F (stereo not drawn) [Compound B36, 3-(2,6-difluoro-4-{4-[2-fluoro-3-(1-n-pentyloxybutyl)phenyl]thiazol-2-ylcarbamoyl}phenyl)-2-methylacrylic acid]"
23,4,"CCCCCc1cccc2c1CCc1sc(NC(=O)c3cc(F)c(C=C(C)C(=O)O)c(F)c3)nc1-2 [Compound A2, 3-[2,6-difluoro-4-(4,5-dihydro-6-pentylnaphtho[1,2-d]thiazol-2-ylcabamoyl)phenyl]-2-methylacrylic acid]"
24,1.7,"CCCCCCOCCC(OC)c1cccc(-c2csc(NC(=O)c3cc(F)c(C=C(C)C(=O)O)c(F)c3)n2)c1F (stereo not drawn) [Compound B52, 3-(2,6-difluoro-4-{4-[2-fluoro-3-(3-n-hexyloxy-1-methyloxyproyl)phenyl]thiazol-2-ylcarbamoyl}phenyl)-2-methylacrylic acid]"

# Same assay, conditions: 20 h + 4 h WST-1, ED50 = half concentration of the concentration showing the maximum thrombopoietic activity, Table 2
row,SMILES,EC50 [nM]
1,CCCCCOCc1cccc(-c2csc(NC(=O)c3cc(Cl)c(/C=C(\C)C(=O)O)c(Cl)c3)n2)c1OC [Compound B1886],22.1
2,CO/C(=C\c1c(Cl)cc(C(=O)Nc2nc(-c3cccc(OCCC4CCCCC4)c3OC)cs2)cc1Cl)C(=O)O [Compound B1919],27.9
3,CO/C(=C\c1c(Cl)cc(C(=O)Nc2nc(-c3cccc(COCCCC(C)C)c3OC)cs2)cc1Cl)C(=O)O [Compound B1941],24.1
4,"CO/C(=C\c1c(Cl)cc(C(=O)Nc2nc(-c3cccc(CCOCCCC(C)C)c3OC)cs2)cc1Cl)C(=O)O [Compound B1923, (Z)-3-[2,6-dichloro-4-(4-{2-methyloxy-3-[2-(4-methylpentyloxy)ethyl]phenyl}thiazol-2-ylcarbamoyl)phenyl)-2-methyloxyacrylic acid]",20.2
5,"CO/C(=C\c1c(F)cc(C(=O)Nc2nc(-c3cccc(COCCC(C)(C)C)c3OC)cs2)cc1F)C(=O)O [Compound B1935, (Z)-3-(4-{4-[3-(3,3-dimethylbutyloxymethyl)-2-methyloxyphenyl]thiazol-2-ylcarbamoyl}-2,6-difluorophenyl)-2-methyloxyacrylic acid]",25.4
6,"COc1c(CCCOCC2CCC2)cccc1-c1csc(NC(=O)c2cc(F)c(/C=C(\C)C(=O)O)c(F)c2)n1 [Compound B1854, (E)-3-(4-{4-[3-(3-cyclobutylmethyloxypropyl)-2-methyloxyphenyl]thiazol-2-ylcarbamoyl}-2,6-difluorophenyl)-2-methylacrylic acid]",24.4
